Laboratory results from patent US9095578B2, “Adenylyl cyclases as novel targets for the treatment of infection by eukaryotic pathogens” (CORNELL RESEARCH FOUNDATION, INC., priority 2007, dated 2015).

Legend:
Candida = assay: morphological transition essential for pathogenesis, Candida; format: cell-based
[1] = test system: adenylyl cyclase activity from Trypansoma brucei cell lysates; assay: adenylyl cyclase assay on whole cell lysate of the bloodstream form; format: biochemical, Trypanosoma brucei; settings: 15 mM MgCl2, 1 mM ATP, pH 7.5, 30° C.; for effect on adenylyl cyclase activity in whole cell lysate: any concentration
Protocol: The effect of these compounds on lysate activity was tested using whole cell lysate of the bloodstream form. Briefly, 5×10^6 cells were sonicated (on ice) in a lysis buffer consisting of 2 mM Tris-HCl, 15 mM KCl, 1 mM EDTA, 1 mM 2-mercaptoethanol, 100 μM PMSF, and 1 μg/mL aprotinin/leupeptin. Adenylyl cyclase assays were conducted using 20 μL of lysate/assay in the presence of 15 mM MgCl2 and 1 mM ATP in 50 mM Tris-HCl at pH=7.5 at 30° C. KH7.14 and KH7.15 had no effect on activity at any concentration while 100 μM KH7 stimulated AC activity in the whole cell lysate between 1.5-2 fold (see FIG. 2). The observation that KH7 prevents growth of bloodstream form cells in vitro via activation of adenylyl cyclase is consistent with the idea that the cAMP pathway controls the cell cycle.

Cryptococcus = assay: morphological transition essential for pathogenesis, Cryptococcus; format: cell-based
[2] = test system: endogenous transmembrane adenylyl cyclases; assay: in vivo cAMP accumulation assay, 293T cells + IBMX and Forskolin; format: cell-based, human; settings: 293T + FSK column
Protocol: 293T cells or 4-4 cells (hsACt stably transfected into 293T) were grown in 75 cm2 Tissue Culture Flasks until nearly confluent using DMEM (10% FBS, 1% L-Glutamine, 1% Penicillin/Streptomycin). Cells were released from the flask with 3 ml of trypsin followed by addition of 7 ml of DMEM to neutralize the trypsin. Cells were mixed by pipetting up and down with 10 ml serological pipette. To a 3 ml aliquot of the cell mixture, 6 ml of DMEM (prewarmed to 37° C.) was added followed by thorough mixing by picking up the entire 9 mls using a repeat pipettor, and slowly pipetting out against the wall of container. This was repeated this ten times to ensure the mixture in homogenous. 100 μL of cells were then added to each pre-siliconized 1.7 ml Eppindorf tubes (Costar #3207) followed by a 60 min incubation at 37° C. and 5% CO2. This incubation was performed in 20-tube, round, floating racks (VWR #60986-100), which enable a quick transfer of the samples to a water bath, and the ability to mix several samples simultaneously. Following the incubation, 1 μL of the compound in DMSO was added (or just DMSO for controls). […] Following a 10 min incubation at room temperature, 30 μL of each sample was added to 70 μL of 0.1 N HCl and the cAMP levels were measured using the protocol for the Direct Cyclic AMP Kit (Assay Designs, Inc. # 901-066). […]

human sAC [3] = target: T1, human sAC (Homo sapiens, UniProt Q96PN6); assay: in vivo cAMP accumulation assay, 4-4 cells (hsACt stably transfected into 293T) + IBMX; format: cell-based; settings: 4-4, Basal column
T1 construct: made in house
T1 sequence (Q96PN6 1-469 limits assumed): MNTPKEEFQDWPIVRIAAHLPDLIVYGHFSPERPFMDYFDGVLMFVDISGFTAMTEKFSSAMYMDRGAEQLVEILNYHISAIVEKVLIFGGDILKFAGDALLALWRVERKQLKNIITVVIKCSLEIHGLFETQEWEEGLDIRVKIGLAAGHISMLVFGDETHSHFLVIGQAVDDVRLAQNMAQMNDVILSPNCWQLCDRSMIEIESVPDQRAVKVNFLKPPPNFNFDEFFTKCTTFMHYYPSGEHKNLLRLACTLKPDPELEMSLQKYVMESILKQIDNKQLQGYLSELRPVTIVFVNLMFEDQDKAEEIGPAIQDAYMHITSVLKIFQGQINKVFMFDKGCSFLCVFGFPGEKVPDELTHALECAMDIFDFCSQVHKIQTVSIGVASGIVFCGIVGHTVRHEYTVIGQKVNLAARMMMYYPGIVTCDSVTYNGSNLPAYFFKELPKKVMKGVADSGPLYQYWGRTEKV
Protocol: 293T cells or 4-4 […] stably transfected into 293T) were grown in 75 cm2 Tissue Culture Flasks until nearly confluent using DMEM (10% FBS, 1% L-Glutamine, 1% Penicillin/Streptomycin). Cells were released from the flask with 3 ml of trypsin followed by addition of 7 ml of DMEM to neutralize the trypsin. Cells were mixed by pipetting up and down with 10 ml serological pipette. To a 3 ml aliquot of the cell mixture, 6 ml of DMEM (prewarmed to 37° C.) was added followed by thorough mixing by picking up the entire 9 mls using a repeat pipettor, and slowly pipetting out against the wall of container. This was repeated this ten times to ensure the mixture in homogenous. 100 μL of cells were then added to each pre-siliconized 1.7 ml Eppindorf tubes (Costar #3207) followed by a 60 min incubation at 37° C. and 5% CO2. This incubation was performed in 20-tube, round, floating racks (VWR #60986-100), which enable a quick transfer of the samples to a water bath, and the ability to mix several samples simultaneously. Following the incubation, 1 μL of the compound in DMSO was added (or just DMSO for controls). The cells were mixed before and after adding the compound, by a brief (and light) vortexing. The compounds were added while the cells were in the 37° C. water bath, followed by a 10 min incubation at 37° C. and 5% CO2. […] The 4-4 cells receive the IBMX to a final concentration of 500 μM IBMX. […]

human sAC [4] = target: T1, human sAC; assay: in vitro adenylyl cyclase assay with purified human sAC protein; format: biochemical; settings: 100 μM of compound; calcium and bicarbonate stimulated; activation instead of inhibition
Protocol: Purified human sAC protein was used in an in vitro adenylyl cyclase assay. Purification of the protein is described in detail in Litvin et al. 2003. […] This paper also describes the general conditions for a sAC cyclase assay. The specific conditions for the in vitro assay are as follows.
An aliquot of the master mixture was added to the purified human sAC. The assay mixture also included the indicated concentration of KH compound, or an equivalent volume of vehicle (i.e., DMSO) as control. The reaction was started by adding 5 mM ATP (total assay volume=100 μL). […] Stimulated assay conditions involve adding 40 mM bicarbonate and 5 mM CaCl2 to the above master mixture.
Cyclic AMP levels were measured in each sample using the Correlate-EIA Direct Cyclic AMP assay kit from Assay Designs as per manufacturers instructions.

SMILES: CC(Sc1nc2ccccc2[nH]1)C(=O)N/N=C/c1cc(Br)ccc1O (centres unmarked) [KH7]
- morphological transition essential for pathogenesis (Candida): blocked
- stimulation of AC activity in the whole cell lysate ([1]; 100 μM): 1.5-2 fold
- morphological transition essential for pathogenesis (Cryptococcus): blocked

SMILES: COc1cc(/C=N/NC(=O)CSc2nc3ccccc3[nH]2)ccc1O [KH7.15]
- effect on adenylyl cyclase activity in whole cell lysate [1]: no effect

SMILES: O=C(CSc1nc2ccccc2[nH]1)N/N=C/c1ccccn1 [KH7.14]
- effect on adenylyl cyclase activity in whole cell lysate [1]: no effect

SMILES: C/C(=N\NC(=O)CSc1nc2ccccc2[nH]1)c1ccccc1 [KH7.108]
- remark on cellular toxicity, 293T cells [2]: may be cellular toxicity
- remark on cellular toxicity, 4-4 cells (human sAC [3]): may be cellular toxicity

SMILES: Cc1ccc(Cn2c(SCC(=O)N/N=C/c3ccncc3)nc3ccccc32)cc1 [KH7.142]
- Activation, printed in column % Inhibition (100 μM), stimulated human sAC (human sAC [4]): Activation @ 100
